16 molecules from patent publication US20030186947A1, “Compounds having activity as inhibitors of cytochrome P450RAI” (priority 2000, published 2003) can be followed below.

Assay in all cases: chimeric receptor transactivation assay
Format in all cases: cell-based
What all share (details): value in parentheses

Assay [1] deals with T1, RARα (Homo sapiens, UniProt P10276).
T1 sequence (P10276 183-417 limits assumed): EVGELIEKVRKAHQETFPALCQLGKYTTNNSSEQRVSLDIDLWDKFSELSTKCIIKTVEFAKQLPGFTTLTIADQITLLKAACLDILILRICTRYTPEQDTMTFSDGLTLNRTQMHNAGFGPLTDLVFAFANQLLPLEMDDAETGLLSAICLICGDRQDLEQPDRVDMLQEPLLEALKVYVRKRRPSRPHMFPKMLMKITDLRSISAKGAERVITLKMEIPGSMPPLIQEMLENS
From the text:
(§1) Assays described below measure the ability of a compound to bind to, and/or activate various retinoid receptor subtypes. When in these assays a compound binds to a given receptor subtype and activates the transcription of a reporter gene through that subtype, then the compound is considered an agonist of that receptor subtype. […] In the below described assays the ability of the compounds to bind to RARα, RARβ, RARγ, RXRα, RXRβ and RXRγ receptors, and the ability or inability of the compounds to activate transcription of a reporter gene through these receptor subtypes can be tested.
(§2) As far as specific assays are concerned, a chimeric receptor transactivation assay which tests for agonist-like activity in the RARα, RARβ, and RARγ, receptor subtypes, and which is based on work published by Feigner P. L. and Holm M (1989) Focus, 112 is described in detail in U.S. Pat. No. 5,455,265. The specification of U.S. Pat. No. 5,455,265 is hereby expressly incorporated by reference. The numeric results obtained with several preferred compounds of this invention in this assay are shown below in Table 1.
(§3) A holoreceptor transactivation assay and a ligand binding assay which measure the antagonist/agonist like activity of the compounds of the invention, or their ability to bind to the several retinoid receptor subtypes, respectively, are described in published PCT Application No. WO WO93/11755 (particularly on pages 30-33 and 37-41) published on Jun. 24, 1993, the specification of which is also incorporated herein by reference. A detailed experimental procedure for holoreceptor transactivations has been described by Heyman et al. Cell 68, 397-406, (1992); Allegretto et al. J. Biol. Chem. 268, 26625-26633, and Mangelsdorf et al. The Retinoids: Biology, Chemistry and Medicine, pp 319-349, Raven Press Ltd., New York, which are expressly incorporated herein by reference. The results obtained in this assay are expressed in EC50 numbers, as they are also in the chimeric receptor transactivation assay. The results of ligand binding assay are expressed in Kd numbers. (See Cheng et al. Biochemical Pharmacology Vol. 22 pp 3099-3108, expressly incorporated herein by reference.)

Assay [2] has as its target T2, RARγ (Homo sapiens, UniProt P13631).
T2 sequence (P13631 185-419 limits assumed): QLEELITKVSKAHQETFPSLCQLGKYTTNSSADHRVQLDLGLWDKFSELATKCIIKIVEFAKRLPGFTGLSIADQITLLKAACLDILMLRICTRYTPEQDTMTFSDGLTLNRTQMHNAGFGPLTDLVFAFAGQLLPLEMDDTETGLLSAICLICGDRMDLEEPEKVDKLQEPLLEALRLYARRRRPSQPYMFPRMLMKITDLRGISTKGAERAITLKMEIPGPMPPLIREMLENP
From the text: as §1, §2, §3

Assay [3] has as its target T3, RARβ (Homo sapiens, UniProt P10826).
T3 sequence (P10826 183-417 limits assumed): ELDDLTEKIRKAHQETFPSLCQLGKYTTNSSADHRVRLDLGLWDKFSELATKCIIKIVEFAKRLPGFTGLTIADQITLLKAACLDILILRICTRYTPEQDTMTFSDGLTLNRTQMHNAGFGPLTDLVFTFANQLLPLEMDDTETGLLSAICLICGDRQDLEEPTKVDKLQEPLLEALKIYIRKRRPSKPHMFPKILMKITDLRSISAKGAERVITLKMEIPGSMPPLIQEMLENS
From the text: as §1
As far as specific assays are concerned, a chimeric receptor transactivation assay which tests for agonist-like activity in the RARα, RARβ, and RARγ, receptor subtypes, and which is based on work published by Feigner P. L. and Holm M (1989) Focus, 112 is described in detail in U.S. Pat. No. 5,455,265. The specification of U.S. Pat. No. 5,455,265 is hereby expressly incorporated by reference.
as §3, with “A detailed experimental procedure for holoreceptor transactivations has been described by Heyman et al. Cell 68, 397-406, (1992); Allegretto et al. J. Biol. Chem. 268, 26625-26633, and Mangelsdorf et al. The Retinoids: Biology, Chemistry and Medicine, pp 319-349, Raven Press Ltd., New York, which are expressly incorporated herein by reference.” left out

With `Cc1cc(C#Cc2ccc(C(=O)O)cc2)ccc1C1(OCC(C)(C)C)CC1` [Compound 89, 4-[4-[1-(2,2-Dimethylpropyloxy)-cyclopropyl]-3-methyl-phenylethynyl]-benzoic acid], the “RAR (EFFICACY) α” value in assay [1] is “(20)”. In addition, the “RAR (EFFICACY) γ” value in assay [2] is recorded as “(46)”. Also, the “RAR (EFFICACY) β” value in assay [3] is recorded as “(50)”.
As for `CC1(C)CC2(CC2)Oc2ccc(C#Cc3ccc(C(=O)O)c(F)c3)cc21` [Compound 44, 2-Fluoro-benzoic acid, 4-[(3,4-dihydro-4,4-dimethylspiro[2H-1-benzopyran-2,1′-cyclopropane]-6-yl)ethynyl]-], the “RAR (EFFICACY) α” value in assay [1] is “(138)”. For the same molecule, in assay [2], the “RAR (EFFICACY) γ” value is listed as “(116)”. For the same molecule, in assay [3], the “RAR (EFFICACY) β” value is listed as “(100)”.
In the case of `Cc1cc(C#Cc2ccc(C(=O)O)cc2)ccc1C1(OCc2ccccc2)CC1` [Compound 81, 4-[4-(l -Benzyloxycyclopropyl)-3-methyl-phenylethynyl]-benzoic acid], the “RAR (EFFICACY) γ” value in assay [2] is “(67)”. The “RAR (EFFICACY) β” value in assay [3] is “(80)”.
For `Cc1cc(C#Cc2ccc(C(=O)O)cc2)ccc1C1(OC(C)C)CC1` [Compound 85, 4-[4-(1-Isopropoxycyclopropyl)-3-methyl-phenylethynyl]-benzoic acid], the “RAR (EFFICACY) α” value in assay [1] is recorded as “(60)”. In addition, the “RAR (EFFICACY) γ” value in assay [2] was “(65)”. Also, the “RAR (EFFICACY) β” value in assay [3] is “(77)”.
On to `CCc1cc(C#Cc2ccc(C(=O)O)cc2)ccc1C1(OCc2ccccc2)CC1` [Compound 93, 4-[4-(1-Benzyloxycyclopropyl)-3-ethyl-phenylethynyl]-benzoic acid], for which the “RAR (EFFICACY) α” value in assay [1] is “(114)”. Also, the “RAR (EFFICACY) γ” value in assay [2] was “(55)”. Besides, the “RAR (EFFICACY) β” value in assay [3] was “(39)”.
On to `CN(C1CC1)C1CCC(C)(C)c2cc(C#Cc3ccc(C(=O)O)c(F)c3)ccc21` (centres unmarked) [Compound 13, 4-[5-(Cyclopropyl-methyl-amino)-8,8-dimethyl-5 6,7,8-tetrahydro-naphthalene-2-yl-ethynyl]-2-fluoro benzoic acid], for which the “RAR (EFFICACY) γ” value in assay [2] was “(9)”. In addition, in assay [3], the “RAR (EFFICACY) β” value is “(6.6)”.
`CCCNC1(c2ccc(C#Cc3ccc(C(=O)O)cc3)cc2)CC1` [Compound 108, 4-[4-(1-Propylamino-cyclopropyl)-phenylethynyl]-benzoic acid]: the “RAR (EFFICACY) α” value in assay [1] was “(15)”. For the same molecule, in assay [2], the “RAR (EFFICACY) γ” value is “(10)”. In addition, the “RAR (EFFICACY) β” value in assay [3] is reported as “(36)”.
On to `CCCN(CCC)C1(c2ccc(C#Cc3ccc(C(=O)O)cc3)cc2)CC1` [Compound 110, 4-[4-(1-Dipropylamino-cyclopropyl)-phenylethynyl]-benzoic acid], for which the “RAR (EFFICACY) γ” value in assay [2] is “(42)”. In addition, the “RAR (EFFICACY) β” value in assay [3] was “(44)”.
As for `CN(C1CC1)C1CCC(C)(C)c2cc(C#Cc3ccc(C(=O)O)cc3)ccc21` (centres unmarked) [Compound 3, 4-[(5-Cyclopropyl-methyl-amino)-8,8-dimethyl-5,6,7,8-tetrahydro-naphthalene-2yl-ethynyl]-benzoic acid], the “RAR (EFFICACY) α” value in assay [1] is listed as “(28)”. Besides, the “RAR (EFFICACY) γ” value in assay [2] is recorded as “(52)”. For the same molecule, in assay [3], the “RAR (EFFICACY) β” value is reported as “(54)”.
In the case of `CC1(C)CCC(=O)c2ccc(C#Cc3ccc(C(=O)O)c(F)c3)cc21` [Compound 10, 2-Fluoro-4-(8,8-dimethyl-5-oxo-5,6,7,8-tetrahydro-naphthalen-2yl-ethynyl)-benzoic acid], the “RAR (EFFICACY) α” value in assay [1] is “(146)”. In addition, in assay [2], the “RAR (EFFICACY) γ” value is given as “(94)”. Moreover, the “RAR (EFFICACY) β” value in assay [3] is recorded as “(86)”.
With `CC(C)OC1(c2ccc(C#Cc3ccc(C(=O)O)cc3)cc2)CC1` [Compound 73, 4-[4-(1-Isopropoxycyclopropyl)-phenylethynyl]-benzoic acid], the “RAR (EFFICACY) γ” value in assay [2] is recorded as “(24)”. In addition, the “RAR (EFFICACY) β” value in assay [3] was “(39)”.
As for `COC1(c2ccc(C#Cc3ccc(C(=O)O)cc3)cc2)CC1` [Compound 69, 4-[4-(1-Methoxycyclopropyl)-phenylethynyl]-benzoic acid], the “RAR (EFFICACY) α” value in assay [1] is reported as “(10)”. In addition, the “RAR (EFFICACY) γ” value in assay [2] is recorded as “(31)”. Also, the “RAR (EFFICACY) β” value in assay [3] is “(50)”.
As for `CN(C1CC1)C1CCC(C)(C)c2cc(C#Cc3ccc(CC(=O)O)cc3)ccc21` (centres unmarked) [Compound 8, 4-[(5-(Cyclopropyl-methyl-amino)-8,8-dimethyl-5,6,7,8-tetrahydro-naphthalene-2-yl-ethynyl)-phenyl]-acetic acid], in assay [3], the “RAR (EFFICACY) β” value is “(96)”.
Turning to `O=C(O)c1ccc(C#Cc2ccc(C3(NCc4ccccc4)CC3)cc2)cc1` [Compound 112, 4-[4-(1-Benzylamino-cyclopropyl)-phenylethynyl]-benzoic acid], the “RAR (EFFICACY) β” value in assay [3] was “(37)”.
With `CC1(C)CCC(=O)c2ccc(C#Cc3ccc(CC(=O)O)cc3)cc21` [Compound 5, 4-[(8,8-Dimethyl-5-oxo-5,6,7,8-tetrahydro-naphthalene-2-yl-ethynyl)-phenyl]-acetic acid], in assay [3], the “RAR (EFFICACY) β” value is “(36)”.
For the molecule `CC1(C)CC2(CC2)Oc2ccc(C#Cc3ccc(C(=O)O)cc3)cc21` [Compound 40, Benzoic acid 4-[(3,4-dihydro-4,4-dimethylspiro[2H-1-benzopyran-2,1′-cyclopropane]-6-yl)ethynyl]-], the “RAR (EFFICACY) α” value in assay [1] is given as “(207)”. For the same molecule, the “RAR (EFFICACY) γ” value in assay [2] is given as “(140)”. For the same molecule, the “RAR (EFFICACY) β” value in assay [3] was “(126)”.
